These are literature values, as cited in patent US12226503B2, “Prebiotic skin care compositions containing carboxylic acids” (priority 2019, dated 2025).

The conditions of this series: toxic or irritant for humans or on skin.
Turning to `O=CC(=O)O` [Glyoxylic acid], the Toxicity result is listed as “+”.

Consider `CCCCCCCCCCCCCCCCCC(=O)O` [Stearic acid], for which the Toxicity result was “+”. Consider `O=C(O)CNC(=O)c1ccccc1` [Hippuric acid], for which the Toxicity result is recorded as “+”. With `O=C(O)[C@@H](O)[C@@H](O)[C@H](O)[C@@H](O)C(=O)O` [D-saccharic acid], the Toxicity entry is “+”. As for `COc1cc(/C=C/C(=O)O)ccc1O` [Ferulic acid], the Toxicity result is recorded as “+”. Consider Citric acid, for which the Toxicity result was “+”. For `CC(O)CC(=O)O` (stereo not drawn) [β-hydroxybutyric acid], the Toxicity entry was “+”. For the molecule `O=C(O)C(CO)c1ccccc1` (stereo not shown) [Tropic acid], the Toxicity result was “+”. Consider `CC(=O)N[C@H]1[C@H]([C@H](O)[C@H](O)CO)O[C@](O)(C(=O)O)C[C@@H]1O` [N-acetyl-neuraminic acid], for which the Toxicity entry is listed as “+”. Take `NCCCCCC(=O)O` [ε-Amino-N-caproic acid]: the Toxicity result was “+”. For the molecule `CCC(N)C(=O)O` (racemic) [D,L-α-amino-N-butyric acid], the Toxicity result is “+”.

On to `O=C(O)/C=C/C(=O)O` [Fumaric acid], for which the Toxicity entry was “+”.

`O=C(O)c1ccc(O)cc1` [4-hydroxybenzoic acid]: the Toxicity entry is reported as “+”. For `O=C(O)[C@@H](O)[C@H](O)[C@H](O)[C@@H](O)C(=O)O` [Mucic acid], the Toxicity result is given as “+”. On to `O=C(O)c1cc(O)c(O)c(O)c1` [Gallic acid], for which the Toxicity result was “+”. Consider `O=C(O)CC(O)C(=O)O` (racemic) [D,L-Malic acid], for which the Toxicity entry is on record as “+”.

With `C[C@H](O)C(=O)O` [L-lactic acid], the Toxicity entry is “+”. With `NCCCC(=O)O` [γ-Aminobutyric acid], the Toxicity entry is listed as “+”. On to `CCCCCCC(N)C(=O)O` (racemic) [D,L-α-amino-caprylic acid], for which the Toxicity entry is reported as “+”.
